Assays:
Assay type in all cases: cell-based
[1] = tested on: U-937-vcr; experiment: FMCA, U-937-vcr vincristin-resistant lymphoma; settings: read-out: EC50 (μM) in various cancer cell lines: U-937-ver
Source text: (§1) The Fluorometric Microculture Cytotoxicity Assay, FMCA, is a three day non-clonogenic microplate-based cell viability assay used for measurement of the cytotoxic and/or cytostatic effect of compounds in vitro (Lindhagen, E., et al. Nat Protoc, 2008. 3(8): p. 1364-9). FMCA (Larsson, R. and P. Nygren, Anticancer Res, 1989. 9(4): p. 1111-9) represents a valuable method to measure cytotoxicity in a number of cell types, both cell lines and primary cells from patients (Larsson, R., et al., Int J Cancer, 1992. 50(2): p. 177-85; Fridborg, H., et al., Eur J Cancer, 1999. 35(3): p. 424-32; Dhar, S., et al., Br J Cancer, 1996. 74(6): p. 888-96).
(§2) FMCA is based on the principle that fluorescein diacetate (FDA) is converted to the fluorescent probe fluorescein by esterases in the plasma membranes of living cells. For experiments, 96 or 384-well microplates are prepared with compounds and stored at −70° C. until use. Cells are then seeded into the drug-prepared plates and placed in an incubator for 72 h. On the last day of incubation, the plates are washed and a buffer containing FDA is added and incubated with the cells for 45 minutes. Finally the fluorescence per well is measured in a fluorometer and a Survival Index % (SI) for each compound-treated well is calculated with the equation: Compound-treated cells minus blank divided by control cells minus blank. A high SI-value indicates a large percentage of living cells and vice versa.
(§3) Compounds of the invention as well as kinase inhibitors sorafenib, sunitinib, dasatinib, and pazopanib (reference compounds) were diluted with PBS to a concentration which was ten-times higher than the desired starting concentration. Then, a Biomek 2000 liquid handling system was employed to serially dilute the compounds in a deep-well 384-well plate. From this plate, assay plates containing 5 μl compound per well were prepared with the Biomek 2000. Certain compounds precipitated when diluted with PBS, and these compounds were therefore prepared in a 96-well plate manually as described above using culture medium RPMI 1640 instead of PBS.
(§4) The compounds were also tested at five concentrations, with five times serial dilution on the following cell types: CCRF-CEM, hTERT-RPE1 (normal retinal epithelial cells), hRPTEpiC (normal renal cells) and PBMC (peripheral blood mononuclear cells). Each experiment was performed three times, except for PBMC and hRPTEpiC, which were performed twice. SI-values were calculated, graphs were plotted using GraphPadPrism 5.0 (GraphPad Software Inc. La Jolla, Calif.) and EC50-values for each cell type and compound were determined from the curves.
(§5) The compounds of the invention were also tested on further cancer cell lines related to colon cancer (HCT116; see e.g Brattain M G, et al. Cancer Res. 1981, 41, 1751-1756), breast cancer (MCF7; see e.g. Soule H D, et al. J. Natl. Cancer Inst. 1973, 51, 1409-1416), teniposide-resistant leukaemia (CEM/VM1; see e.g. Danks M K et al. Cancer Res. 1987, 47, 1297-1301), lung cancer (H69; see e.g. Gazdar A F, et al. Cancer Res. 1980, 40, 3502-3507), doxorubicin-resistant lung cancer (H69AR; see e.g. Mirski S E, et al. Cancer Res. 1987, 47, 2594-2598), myeloma (RPMI 8226; see e.g. Matsuoka Y, et al. Proc. Soc. Exp. Biol. Med. 1967, 125, 1246-1250), doxorubicin-resistant myeloma (8226/Dox40; see e.g. Dalton W S et al. Blood 1989, 15,747-752), lymphoma (U-937, see e.g. Sundstrom C, et al. Int. J. Cancer 1976, 17, 565-577), vincristin-resistant lymphoma (U-937-vcr; see e.g. Botling J, et al. Int J Cancer 1994, 15; 58 (2), 269-274), ovarian cancer (A2780; see e.g. Hamilton T C, et al. Semin Oncol. 1984, 11, 285-298), doxorubicin-resistant ovarian cancer (A2780/Adr), cisplatin-resistant ovarian cancer (A2780/Cis; see e.g. Behrens B C, et al. Cancer Res. 1987, 47, 414-418), renal cancer (ACHN; see e.g. Borden E C, et al. Cancer Res. 1982, 42(12), 4948-4953), pancreatic cancer (PANC-1, BxPC-3, and MIA PaCa-2; see e.g. Lieber M, et al. Int. […]

[2] = tested on: A2780/Adr; experiment: FMCA, A2780/Adr doxorubicin-resistant ovarian cancer; settings: read-out: EC50 (μM) in various cancer cell lines: A2780/Adr
Source text: as §1, §2, §3, §4
(§6) The compounds of the invention were also tested on further cancer cell lines related to colon cancer (HCT116; see e.g Brattain M G, et al. Cancer Res. 1981, 41, 1751-1756), breast cancer (MCF7; see e.g. Soule H D, et al. J. Natl. Cancer Inst. 1973, 51, 1409-1416), teniposide-resistant leukaemia (CEM/VM1; see e.g. Danks M K et al. Cancer Res. 1987, 47, 1297-1301), lung cancer (H69; see e.g. Gazdar A F, et al. Cancer Res. 1980, 40, 3502-3507), doxorubicin-resistant lung cancer (H69AR; see e.g. Mirski S E, et al. Cancer Res. 1987, 47, 2594-2598), myeloma (RPMI 8226; see e.g. Matsuoka Y, et al. Proc. Soc. Exp. Biol. Med. 1967, 125, 1246-1250), doxorubicin-resistant myeloma (8226/Dox40; see e.g. Dalton W S et al. Blood 1989, 15,747-752), lymphoma (U-937, see e.g. Sundstrom C, et al. Int. […]

[3] = tested on: U-937; experiment: FMCA, U-937 lymphoma; settings: Homo sapiens, read-out: EC50 (μM) in various cancer cell lines: U-937
Source text: as §1, §2, §3, §4, §5

[4] = tested on: PANC-1; experiment: FMCA, PANC-1 pancreatic cancer; settings: Homo sapiens, read-out: EC50 (μM) in various cancer cell lines: PANC-1
Source text: as §1
as §2, with “versa. […]” for “versa.”
as §4, with “Each experiment was performed three times, except for PBMC and hRPTEpiC, which were performed twice.” left out, “curves. […]” for “curves.”

[5] = tested on: H69; experiment: FMCA, H69 lung cancer; settings: Homo sapiens, NCI-H69, read-out: EC50 (μM) in various cancer cell lines: H69
Source text: as §1, §2, §3, §4, §5

[6] = tested on: RPMI 8226; experiment: FMCA, RPMI 8226 myeloma; settings: Homo sapiens, read-out: EC50 (μM) in various cancer cell lines: RPMI 8226
Source text: as §1, §2, §3, §4, §5

[7] = tested on: A2780; experiment: FMCA, A2780 ovarian cancer; settings: Homo sapiens, read-out: EC50 (μM) in various cancer cell lines: A2780
Source text: as §1, §2, §3, §4, §5

[8] = tested on: A2780/Cis; experiment: FMCA, A2780/Cis cisplatin-resistant ovarian cancer; settings: A2780cis, read-out: EC50 (μM) in various cancer cell lines: A2780/Cis
Source text: as §1, §2, §3, §4, §6

[9] = tested on: CEM/VM1; experiment: FMCA, CEM/VM1 teniposide-resistant leukaemia; settings: Homo sapiens, read-out: EC50 (μM) in various cancer cell lines: CEM/VM1
Source text: as §1, §2, §3, §4, §5

[10] = tested on: BxPC-3; experiment: FMCA, BxPC-3 pancreatic cancer; settings: Homo sapiens, read-out: EC50 (μM) in various cancer cell lines: BxPC-3
Source text: as §1
as §2, with “versa. […]” for “versa.”
as §4, with “Each experiment was performed three times, except for PBMC and hRPTEpiC, which were performed twice.” left out, “curves. […]” for “curves.”

[11] = tested on: 8226/Dox40; experiment: FMCA, 8226/Dox40 doxorubicin-resistant myeloma; settings: read-out: EC50 (μM) in various cancer cell lines: 8226/Dox40
Source text: as §1, §2, §3, §4, §5

[12] = tested on: HCT116; experiment: FMCA, HCT116 colon cancer; settings: Homo sapiens, HCT-116, read-out: EC50 (μM) in various cancer cell lines: HCT116
Source text: as §1, §2, §3, §4, §5

[13] = tested on: MCF7; experiment: FMCA, MCF7 breast cancer; settings: Homo sapiens, read-out: EC50 (μM) in various cancer cell lines: MCF7
Source text: as §1, §2, §3, §4, §5

[14] = tested on: ACHN; experiment: FMCA, ACHN renal cancer; settings: Homo sapiens, read-out: EC50 (μM) in various cancer cell lines: ACHN
Source text: as §1, §2, §3, §4, §5

[15] = tested on: MIA PaCa-2; experiment: FMCA, MIA PaCa-2 pancreatic cancer; settings: Homo sapiens, read-out: EC50 (μM) in various cancer cell lines: MIA PaCa-2
Source text: as §1
as §2, with “versa. […]” for “versa.”
as §4, with “Each experiment was performed three times, except for PBMC and hRPTEpiC, which were performed twice.” left out, “curves. […]” for “curves.”

[16] = tested on: H69AR; experiment: FMCA, H69AR doxorubicin-resistant lung cancer; settings: Homo sapiens, read-out: EC50 (μM) in various cancer cell lines: H69 AR
Source text: as §1, §2, §3, §4, §5

[17] = tested on: CCRF-CEM cancer cells - leukaemia; experiment: Fluorometric Microculture Cytotoxicity Assay (FMCA), CCRF-CEM; settings: Homo sapiens, 72 h incubation
Source text: as §1, §2
In subsequent experiments, compounds were tested, along with kinase inhibitors (dasatinib, pazopanib, sorafenib, and sunitinib) as described above. Initially, the acute lymphoblastic leukaemia cell line CCRF-CEM (see e.g. Foley G E, et al. Cancer 1965, 18, 522-529) was used throughout. In the assay plates, medium was added to six empty wells (blank wells) and wells were filled with PBS and cell suspension and served as control wells. SI-values were then calculated for each compound-treated well as described above. All experiments were conducted twice and a new batch of plates was prepared for each experiment.
For dose-response experiments, 384-well plates were prepared as follows:
as §3, §4

SMILES	EC50 [1] [µM]	EC50 [2] [µM]	EC50 [3] [µM]	EC50 [4] [µM]	EC50 [5] [µM]	EC50 [6] [µM]	EC50 [7] [µM]	EC50 [8] [µM]	EC50 [9] [µM]	EC50 [10] [µM]	EC50 [11] [µM]	EC50 [12] [µM]	EC50 [13] [µM]	EC50 [14] [µM]	EC50 [15] [µM]	EC50 [16] [µM]	EC50 [17] [nM]
COc1ccc2[nH]cc(CCNc3nccc(NCc4ccc5[nH]ccc5c4)n3)c2c1 [Example 12, N^4-(1H-indol-5-ylmethyl)-N^2-[2-(5-methoxy-1H-indol-3-yl)ethyl]pyrimidine-2,4-diamine]	0.3	1.9	0.27	< 0.1	7.84	0.53	0.47	0.61	0.17	< 0.1	1.81	0.63	3.88	1.9	< 0.1	0.27	760
Cc1cc(NCc2ccc3[nH]ncc3c2)nc(Nc2cccc3[nH]ccc23)n1 [Example 37, N^4-(1H-indazol-5-ylmethyl)-N^2-(1H-indol-4-yl)-6-methylpyrimidine-2,4-diamine]	0.34	1.71	0.29	< 0.1	11.6	0.81	0.45	0.32	0.23	< 0.1	2.02	6.2	4.92	3.08	< 0.1	–	420
c1cc(Nc2nccc(NCc3ccc4[nH]cnc4c3)n2)c2cc[nH]c2c1 [Example 19, N^4-(1H-benzo[d]imidazol-5-ylmethyl)-N^2-(1H-indol-4-yl)pyrimidine-2,4-diamine]	1.81	12.6	1.47	< 1	30.7	12.8	1.59	1.99	1.33	< 1	46.3	9.83	28.5	25.2	< 1	–	1020
